Laboratory results as given in ChEMBL document CHEMBL5260847, “Current scenario of indole derivatives with potential anti-drug-resistant cancer activity” (Eur J Med Chem, 2020).
One block for each compound: values may come before it.

Assays:
[1] = test system: HT-29; test: Cytotoxicity activity against human HT-29 cells assessed as reduction in cell viability by SRB assay; format: functional, cell-based
[2] = test system: PC-3; test: Cytotoxicity activity against human PC-3 cells assessed as reduction in cell viability by MTT assay; format: functional, cell-based
[3] = Cytotoxicity activity against human U87MG.deltaEGFR cells assessed as reduction in cell viability incubated for 72 hrs by MTT assay; format: functional, cell-based
[4] = test system: NCI-H1975; test: Antitumor activity in human NCI-H1975 cells xenografted Sprague-Dawley mouse at 40 mg/kg assessed as tumor growth inhibition administered for 5 days; format: functional; parameters: scale not given: the % may be the effect or the level left; conditions: time 5 day
[5] = test system: NCI-H460; test: Antitumor activity in human NCI-H460 cells xenografted […] mouse at 40 mg/kg assessed as tumor growth inhibition; format: functional; parameters: scale not given: the % may be the effect or the level left
[6] = test system: NCI-H1650; test: Cytotoxicity activity against drug-sensitive human NCI-H1650 cells assessed as reduction in cell viability measured after 72 hrs by MTT assay; format: functional, cell-based; conditions: NCI-H1650, 72 h
[7] = test system: PC-9; test: Antitumor activity in gefitinib-resistant human PC-9 cells xenografted Sprague-Dawley mouse at 40 mg/kg assessed as tumor growth inhibition administered for 5 days; format: functional; parameters: scale not given: the % may be the effect or the level left; conditions: time 5 day
[8] = test system: NCI-H1650; test: Antitumor activity in human NCI-H1650 cells xenografted Sprague-Dawley mouse at 40 mg/kg assessed as tumor growth inhibition administered for 5 days; format: functional; parameters: scale not given: the % may be the effect or the level left; conditions: time 5 day
[9] = test system: CCRF-CEM; test: Cytotoxicity against drug-sensitive human CCRF-CEM cells assessed as reduction in cell viability measured after 72 hrs by MTT assay; format: functional, cell-based
[10] = test system: HepG2; test: Anticancer activity against human HepG2 cells assessed as inhibition of cell growth; format: functional, cell-based
[11] = test system: MCF7; test: Cytotoxicity against human MCF7 cells assessed as reduction in cell viability measured after 48 hrs by SRB assay; format: functional, cell-based; conditions: MCF7, 48 h
[12] = test system: SW-620; test: Cytotoxicity against human SW620 cells assessed as reduction in cell viability measured after 48 hrs by SRB assay; format: functional, cell-based; conditions: SW-620, 48 h
[13] = test system: DLD-1; test: Cytotoxicity against human DLD-1 cells assessed as reduction in cell viability measured after 48 hrs by SRB assay; format: functional, cell-based; conditions: DLD-1, 48 h
[14] = test system: SK-OV-3; test: Cytotoxicity against human SK-OV-3 cells assessed as reduction in cell viability measured after 48 hrs by SRB assay; format: functional, cell-based; conditions: SK-OV-3, 48 h
[15] = test system: MCF-10A; test: Antiproliferative activity against human MCF-10A cells assessed as reduction in cell viability measured after 48 hrs by MTT assay; format: functional, cell-based
[16] = test system: HT-29; test: Antiproliferative activity against drug-sensitive human HT-29 cells assessed as reduction in cell viability by MTT assay; format: functional, cell-based
[17] = test system: ZR-75-1; test: Antiproliferative activity against multi-drug resistant human ZR-75-1 cells assessed as reduction in cell viability; format: functional, cell-based
[18] = test system: H69AR; test: Antiproliferative activity against multidrug resistant human NCI-H69AR assessed as inhibition of cell proliferation by MTT assay; format: functional, cell-based
[19] = test system: ZR-75-1; test: Antiproliferative activity against human ZR-75-1 cells assessed as reduction in cell viability celltiter-Glo assay; format: functional, cell-based
[20] = Selectivity index, ratio of IC50 for antiproliferative activity against human MCF-10A cells to IC50 for antiproliferative activity against […] cells by MTT assay; format: toxicity, cell-based; conditions: MCF-10A cells and IEC-6 cells, read-out: Selectivity Index
[21] = test system: H69AR; test: Antiproliferative activity against multi-drug resistant human NCI-H69AR assessed as reduction in cell viability; format: functional, cell-based
[22] = test system: HT-29; test: Antiproliferative activity against human HT-29 cells assessed as reduction in cell viability celltiter-Glo assay; format: functional, cell-based
[23] = test system: K562; test: Cytotoxicity activity against […] human K562 cells assessed as reduction in cell viability measured after 72 hrs by CCK-8 assay; format: functional, cell-based; conditions: K562, 72 h
[24] = test system: K562/Adr; test: Cytotoxicity activity against doxorubicin-resistant human K562/Adr cells assessed as reduction in cell viability measured after 72 hrs by CCK-8 assay; format: functional, cell-based
[25] = test system: K562; test: Antiproliferative activity against human K562 cells assessed as reduction in cell growth measured after 24 hrs by CCK-8 assay; format: functional, cell-based; conditions: K562, 24 h
[26] = test system: HCT-116; test: Antiproliferative activity against multi-drug - resistant human HCT-116 cells assessed as reduction in cell viability; format: functional, cell-based
[27] = test system: HCT-15; test: Antiproliferative activity against multidrug-resistant human HCT-15 cells assessed as reduction in cell viability; format: functional, cell-based
[28] = test system: LNCaP; test: Cytotoxicity activity against human LNCaP cells assessed as reduction in cell viability; format: functional, cell-based
[29] = test system: PC-3; test: Antitumor activity in human PC-3 cells xenografted immunodeficient ICR mouse assessed as reduction in tumor growth at 25 mg/kg, ip administered for 2 weeks; format: functional; parameters: scale not given: the % may be the effect or the level left
[30] = test system: PC-3; test: Antitumor activity in human PC-3 cells xenografted immunodeficient ICR mouse assessed as reduction in tumor growth at 0.5 mg/kg, ip administered for 2 weeks in presence of vinblastine; format: functional; parameters: scale not given: the % may be the effect or the level left
[31] = test system: KB; test: Antiproliferative activity against human KB cells assessed as reduction in cell growth incubated for 2 days by MTT assay; format: functional, cell-based; conditions: 48 h
[32] = Cytotoxicity against human hypertrophic scar Fibroblast cells assessed as inhibition of cell growth incubated for 2 hrs by MTT assay; format: toxicity, cell-based
[33] = Cytotoxicity against human HUVEC cells assessed as reduction in cell viability incubated for 2 hrs by MTT assay; format: toxicity, cell-based
[34] = test system: K562/A02; test: Antiproliferative activity against human K562/A02 cells assessed as reduction in cell viability measured after 2 days by MTT assay; format: functional, cell-based; conditions: K562/A02, 48 h
[35] = test system: A549; test: Cytotoxicity activity against human A549 cells assessed as reduction in cell viability by SRB assay; format: functional, cell-based
[36] = test system: HeLa; test: Anticancer activity against human HeLa cells assessed as inhibition of cell growth; format: functional, cell-based

SMILES: C/C=C1\CN2CC[C@@]34c5c(ccc6c5OC5OC[C@@H]7[C@@H](C[C@H]8c9c(c%10ccccc%10n9C)C[C@@H]7N8C)[C@@H]5[C@@H]6C)N(C)[C@H]3[C@@H]2C[C@H]1[C@@H]4C(=O)OC (stereo not given in full)
IC50 [1]: 300 nM | IC50 [2]: 7.2 µM

SMILES: COC(=O)[C@H]1[C@H]2C[C@@H]3c4[nH]c5cc(OC)ccc5c4CCN3C[C@H]2C[C@@H](OC(=O)c2cc(OC)c(OC)c(OC)c2)[C@@H]1OC [RESERPINE]
IC50 [3]: 9.15 µM

SMILES: CCc1c(CO)c(CO)c2n1Cc1c(c3ccccc3n1C)C2
Activity [4]: 26% | Activity [5]: 65% | IC50 [6]: 3.5 µM | Activity [7]: 73% | Activity [8]: 30% | IC50 [9]: 410 nM

IC50 [10]: 0.18 µM
SMILES: CO/N=C1\C(=O)N(Cc2cn(CCOCCN3C(=O)/C(=N/OC)c4ccccc43)nn2)c2ccccc21

SMILES: COc1ccc(C(=O)/C=C/c2nccc3c2[nH]c2ccccc23)cc1OC
IC50 [11]: 1250 nM | IC50 [12]: 10 µM | IC50 [13]: 2500 nM | IC50 [14]: 5 µM

IC50 [16]: 5.87 µM | IC50 [22]: 2750 nM
SMILES: O=C1Nc2ccc(Cl)cc2/C1=N/N=C/c1ccn[nH]1
IC50 [15]: 3.42 µM | IC50 [17]: 1370 nM | IC50 [18]: 16 µM | IC50 [19]: 1370 nM | selectivity ratio [20]: 1.6 | IC50 [21]: 16.6 µM

IC50 [25]: 43 nM
SMILES: COc1cc([C@@H]2c3cc4c(cc3[C@H](OC(=O)c3ccc5cc[nH]c5c3)[C@H]3COC(=O)[C@H]23)OCO4)cc(OC)c1OC
IC50 [23]: 19 nM | IC50 [24]: 245 nM

IC50 [26]: 2060 nM | IC50 [27]: 690 nM
SMILES: [O-][n+]1onc2c3cc[nH]c3ccc21

SMILES: CC[C@]1(O)C[C@H]2CN(CCc3c([nH]c4ccccc34)[C@@](C(=O)OC)(c3cc4c(cc3OC)N(C=O)[C@H]3[C@@](O)(C(=O)OC)[C@H](OC(C)=O)[C@]5(CC)C=CCN6CC[C@]43[C@@H]65)C2)C1 [VINCRISTINE]
IC50 [28]: 2600 nM

SMILES: CC1(C)C([C@@H](Cc2c[nH]c3ccccc23)C(=O)OCc2ccccc2)C(=O)[C@@H]2Cc3c([nH]c4ccccc34)CN21 (stereo not given in full)
Activity [29]: 40% | Activity [30]: 50%

IC50 [31]: 1010 nM | IC50 [34]: 4.71 µM
SMILES: COc1ccc2[nH]cc(C(=O)C(=O)N[C@@H]3c4cc5c(cc4[C@@H](c4cc(OC)c(OC)c(OC)c4)[C@H]4C(=O)OC[C@@H]43)OCO5)c2c1
IC50 at 2 h [32]: 26.1 µM | IC50 at 2 h [33]: 15.1 µM

SMILES: C/C=C1\CN(C)[C@H]2Cc3c([nH]c4ccccc34)[C@@H](c3ccc4[nH]c5c(c4c3OC)CCN3C[C@H]4CC[C@H]5[C@H]3[C@@H]4CC)C[C@H]1[C@@H]2C(=O)OC
IC50 [35]: 6.8 µM | IC50 [1]: 930 nM

IC50 [31]: 1020 nM | IC50 [36]: > 50 µM | IC50 [34]: 10.6 µM | IC50 [10]: 6.94 µM
SMILES: COc1cc([C@@H]2c3cc4c(cc3[C@@H](O[C@@H]3O[C@@H]5CO[C@@H](C)O[C@H]5[C@H](O)[C@H]3O)[C@H]3COC(=O)[C@H]23)OCO4)cc(OC)c1O [ETOPOSIDE]
